Converted amounts (≈) assume the structure as drawn. Positions of bridges follow the written chain, without caps; N, C: chain ends. Non-standard residues stand in square brackets, D forms with d. Residues, ends and D or L forms follow the SMILES beside them. Groups on a side chain read outwards from the residue. *: point of attachment. Palmitoyl(16-(5-tetrazolyl)) = O=C(CCCCCCCCCCCCCCCc1nnn[nH]1)*; Lys(CH2CO2H)2 = N[C@@H](CCCCN(CC(=O)O)CC(=O)O)C(=O)O; C17 diacid = O=C(O)CCCCCCCCCCCCCCCC(=O)*; Orn = NCCC[C@H](N)C(=O)O; Dab = NCC[C@H](N)C(=O)O; AEEA = NCCOCCOCC(=O)O
Legend:
[1] = physchem
Procedure: From a stock solution in vehicle, either H2O or 10 mM phosphate, containing 1 mg (as weighed) compound per ml, 8-11 aliquots are withdrawn and pH-adjusted individually with HCl/NaOH, to cover the whole pH range.

[2] = target: MC1 receptor (Homo sapiens, UniProt Q01726); assay: biochemical
MC1 receptor, sequence (Q01726 whole entry): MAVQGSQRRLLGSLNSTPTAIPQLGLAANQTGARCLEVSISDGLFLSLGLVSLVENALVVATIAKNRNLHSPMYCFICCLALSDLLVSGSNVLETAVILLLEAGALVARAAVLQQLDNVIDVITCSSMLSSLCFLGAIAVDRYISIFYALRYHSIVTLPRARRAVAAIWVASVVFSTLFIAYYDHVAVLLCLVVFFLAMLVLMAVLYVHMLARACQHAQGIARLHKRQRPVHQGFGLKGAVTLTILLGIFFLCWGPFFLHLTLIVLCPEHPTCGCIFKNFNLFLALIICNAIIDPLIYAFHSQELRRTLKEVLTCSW
Procedure: Assay (IV)—Melanocortin Receptor 1 (MC1) Binding Assay
The MC1 receptor binding assay was performed on BHK cell membranes stably expressing the MC1 receptor. The assay was performed in a total volume of 250 μl: 25 μl of ^125NDP-α-MSH (22 pM in final concentration), 25 μl of test compound/control and 200 μl of cell membrane (25 μg/ml). Test compounds were dissolved in DMSO. Radioactively labeled ligand, membranes and test compounds were diluted in buffer: 25 mM HEPES, pH 7.4, 0.1 mM CaCl2, 1 mM MgSO4, 1 mM EDTA, 0.1% HSA and 0.005% Tween™ 20. Alternatively, HSA may be substituted with ovalbumin. The samples were incubated at 30° C. for 90 min. in Costar round-bottom microtiter plates. Incubation was terminated by filtration on a Packard harvester filtermate. Rapid filtration through Packard Unifilter-96 GF/B filters pre-treated with polyetylenimine (PerkinElmer 6005277). The filters were washed with ice-cold 0.9% NaCl 8-10 times. The plates were air-dried at app. 55° C. for 30 min, and 50 μl Microscint 0 (Packard, cat. No. 6013616) was added to each well. The plates were counted in a Topcounter (1 min/well).
The data were analysed by non-linear regression analysis of binding curves, using the Windows™ program GraphPad™ Prism (GraphPad Software, USA).

| SMILES | solubility ([1]; pH 6.1, Solubility Conc.) [µM] | solubility ([1]; pH 6.8, Solubility Conc.) [µM] | solubility ([1]; pH 7.3, Solubility Conc.) [µM] | solubility ([1]; pH 7.4, Solubility Conc.) [µM] | solubility ([1]; pH 7.7, Solubility Conc.) [µM] | solubility ([1]; pH 8, Solubility Conc.) [µM] | Ki [2] [µM] | solubility ([1]; pH 6, Solubility Conc.) [µM] | solubility ([1]; pH 6.3, Solubility Conc.) [µM] | solubility ([1]; pH 6.7, Solubility Conc.) [µM] | solubility ([1]; pH 7.9, Solubility Conc.) [µM] | solubility ([1]; pH 7.2, Solubility Conc.) [µM] | also measured |
| --- | --- | --- | --- | --- | --- | --- | --- | --- | --- | --- | --- | --- | --- |
| CC(=O)N[C@H]1CCNC(=O)C[C@@H](C(=O)N2CCC[C@H]2C(=O)N2CCC[C@H]2C(=O)N[C@@H](CCCNC(=N)N)C(=O)N[C@@H](CCC(=O)O)C(=O)N[C@@H](CCCCN(CC(=O)O)CC(=O)O)C(=O)N[C@@H](CCCCNC(=O)COCCOCCNC(=O)CCCCCCCCCCCCCCCc2nnn[nH]2)C(N)=O)NC(=O)[C@H](Cc2c[nH]c3ccccc23)NC(=O)[C@H](CCCNC(=N)N)NC(=O)[C@@H](Cc2ccccc2)NC(=O)[C@H](Cc2c[nH]cn2)NC1=O [Example 15, Ac-c[Dab-His-D-Phe-Arg-Trp-Asp]-Pro-Pro-Arg-Glu-Lys(biscarboxymethyl)-Lys[(2-{2-[16-(tetrazol-5-yl)hexadecanoylamino]ethoxy}ethoxy)acetyl]-NH2] (Ac-[Dab]H[dF]RWDPPRE[Lys(CH2CO2H)2]K([AEEA-Palmitoyl(16-(5-tetrazolyl))])-NH2; lactam 1-6) | 26 (≈ 56.9 µg/mL) | 60 (≈ 131 µg/mL) | 395 (≈ 864 µg/mL) | 445 (≈ 973 µg/mL) | 461 (≈ 1010 µg/mL) | 417 (≈ 912 µg/mL) | > 10 | – | – | – | – | – | solubility ([1]; pH 5, Solubility Conc.): 49 µM (≈ 107 µg/mL); solubility ([1]; pH 7.1, Solubility Conc.): 147 µM (≈ 321 µg/mL); solubility ([1]; pH 7.8, Solubility Conc.): 441 µM (≈ 964 µg/mL) |
| CC(=O)N[C@H]1CCCNC(=O)CC[C@@H](C(=O)N2CCC[C@H]2C(=O)N[C@@H](CO)C(=O)N[C@@H](CCCCN)C(=O)N[C@@H](CCC(=O)O)C(=O)N[C@@H](CCC(=O)O)C(=O)N[C@@H](CO)C(=O)N[C@@H](CO)C(=O)N[C@@H](CCC(=O)O)C(=O)N[C@@H](CCCCNC(=O)COCCOCCNC(=O)CCCCCCCCCCCCCCCC(=O)O)C(N)=O)NC(=O)[C@H](Cc2c[nH]c3ccccc23)NC(=O)[C@H](CCCNC(=N)N)NC(=O)[C@@H](Cc2ccccc2)NC(=O)[C@H](Cc2c[nH]cn2)NC1=O [Example 20] (Ac-[Orn]H[dF]RWEPSKEESSEK([AEEA-C17 diacid])-NH2; lactam 1-6) | – | – | 433 (≈ 1010 µg/mL) | – | – | – | > 10 | 192 (≈ 449 µg/mL) | 399 (≈ 934 µg/mL) | 416 (≈ 974 µg/mL) | 398 (≈ 932 µg/mL) | – | solubility ([1]; pH 6.4, Solubility Conc.): 410 µM (≈ 960 µg/mL); solubility ([1]; pH 7, Solubility Conc.): 420 µM (≈ 983 µg/mL); solubility ([1]; pH 7.6, Solubility Conc.): 429 µM (≈ 1000 µg/mL); solubility ([1]; pH 8.2, Solubility Conc.): 439 µM (≈ 1030 µg/mL) |
| CC(=O)N[C@H]1CCCCNC(=O)CC[C@@H](C(=O)N2CCC[C@H]2C(=O)N2CCC[C@H]2C(=O)N[C@@H](CCCNC(=N)N)C(=O)N[C@@H](CC(=O)O)C(=O)N[C@@H](CCCCN(CC(=O)O)CC(=O)O)C(=O)N[C@@H](CCCCNC(=O)COCCOCCNC(=O)CCCCCCCCCCCCCCCc2nnn[nH]2)C(N)=O)NC(=O)[C@H](Cc2c[nH]c3ccccc23)NC(=O)[C@H](CCCNC(=N)N)NC(=O)[C@@H](Cc2ccccc2)NC(=O)[C@H](Cc2c[nH]cn2)NC1=O [Example 21, Ac-c[Lys-His-D-Phe-Arg-Trp-Glu]-Pro-Pro-Arg-Asp-Lys(biscarboxymethyl)-Lys[(2-{2-[16-(tetrazol-5-yl)hexadecanoylamino]ethoxy}ethoxy)acetyl]-NH2] (Ac-KH[dF]RWEPPRD[Lys(CH2CO2H)2]K([AEEA-Palmitoyl(16-(5-tetrazolyl))])-NH2; lactam 1-6) | – | – | – | 175 (≈ 388 µg/mL) | 360 (≈ 797 µg/mL) | – | > 10 | 31 (≈ 68.7 µg/mL) | 36 (≈ 79.7 µg/mL) | – | 366 (≈ 811 µg/mL) | 90 (≈ 199 µg/mL) | solubility ([1]; pH 5.3, Solubility Conc.): 38 µM (≈ 84.2 µg/mL); solubility ([1]; pH 6.6, Solubility Conc.): 47 µM (≈ 104 µg/mL); solubility ([1]; pH 7.5, Solubility Conc.): 276 µM (≈ 611 µg/mL) |
| CC(=O)N[C@H]1CCCNC(=O)CC[C@@H](C(=O)N2CCC[C@H]2C(=O)N2CCC[C@H]2C(=O)N[C@@H](Cc2c[nH]cn2)C(=O)N[C@@H](CCC(=O)O)C(=O)N[C@@H](CCCCN(CC(=O)O)CC(=O)O)C(=O)N[C@@H](CCCCNC(=O)COCCOCCNC(=O)CCCCCCCCCCCCCCCC(=O)O)C(N)=O)NC(=O)[C@H](Cc2c[nH]c3ccccc23)NC(=O)[C@H](CCCNC(=N)N)NC(=O)[C@@H](Cc2ccccc2)NC(=O)[C@H](Cc2c[nH]cn2)NC1=O [Example 22, Ac-c[Orn-His-D-Phe-Arg-Trp-Glu]-Pro-Pro-His-Glu-Lys(biscarboxymethyl)-Lys({2-[2-(16-carboxyhexadecanoylamino)ethoxy]ethoxy}acetyl)-NH2] (Ac-[Orn]H[dF]RWEPPHE[Lys(CH2CO2H)2]K([AEEA-C17 diacid])-NH2; lactam 1-6) | 134 (≈ 291 µg/mL) | 444 (≈ 964 µg/mL) | – | 438 (≈ 951 µg/mL) | – | 468 (≈ 1020 µg/mL) | > 10 | – | 173 (≈ 376 µg/mL) | 284 (≈ 617 µg/mL) | – | 447 (≈ 971 µg/mL) | solubility ([1]; pH 6.9, Solubility Conc.): 443 µM (≈ 962 µg/mL) |
